Source: patent US12083105B2, “Compositions and methods for treating adult-onset neuronal ceroid lipofuscinosis (Kufs disease)” (CORNELL UNIVERSITY, priority 2020, dated 2024)

Test system: CSPα^WT, CSPα^L115R and CSPα^L116Δ
Experiment: Fe—S cluster disruption of purified recombinant CSPα oligomers (SDS-PAGE, immunoblotting)
Assay type: biochemical
Details: purified recombinant proteins; 1 mM, 2 h at room temperature; FIG. 2B
Method: FIGS. 2A-2F show dissociation of CSPα ANCL mutant protein oligomers by acid treatment. […] Purified recombinant CSPα^WT, CSPα^L115R CSPα^L116Δ, and SSPα proteins were incubated with either 1 mM L-cysteine for 2 h at room temperature (+L-Cys) or 0.1 N HCl for 20 min at room temperature (+HCl). The proteins were separated by SDS-PAGE, and resultant gels were subjected to immunoblotting using anti-CSPα antibody. A representative immunoblot is shown. Key: Mono=monomer; Oligo=oligomers of higher mass than dimer. Mono=monomer; Oligo=oligomers; grey arrowheads=possible dimer and tetramer. […] The proteins were subjected to increasing trypsin concentrations (0, 0.01, 0.05, 0.1, and 1.0 mg/ml) for 20 min at 4° C., followed by immediate inhibition of trypsin with addition of phenylmethylsulfonyl fluoride (PMSF) to 1 mM. After proteolysis was stopped, CSPα oligomers were disrupted with 0.1 N HCl for 20 min at room temperature, followed by 10 min of boiling in Laemmli sample buffer. The resultant proteins were separated by SDS-PAGE, and subjected to immunoblotting using anti-CSPα antibody. […] The proteins were first incubated with 0.1 N HCl for 20 min at room temperature and then neutralized with 1 M sodium cacodylate to pH 7.0. Limited proteolysis was then performed using increasing trypsin concentrations (0, 0.01, 0.05, 0.1, and 1.0 mg/ml) for 20 min at 4° C. […]

`N[C@@H](CS)C(=O)O` [L-cysteine] was tested, and the “disassembly of oligomers of CSPα^WT, CSPα^L115R and CSPα^L116Δ” value was “no significant effect”.
